Data from the supplement of paper PMC5844555.

Key:
Test in all cases: 3' UTR reporter interaction score (median-centred robust z-score of log2 firefly/Renilla activity); higher = less repression of the 3' UTR reporter
Conditions in all cases: HEK293T; 48 h
BRCA2 = tested on: BRCA2
Method in brief: (§1)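 A firefly luc2P reporter carrying the gene's 3' UTR (100 ng), Renilla pRL-TK control (20 ng) and miRNA mimic (2.5 pmol) were co-transfected with DharmaFECT Duo into HEK293T cells plated at 10,000/well in 96-well plates. Luciferase activities were read 48 h post-transfection. The interaction score is the log firefly/Renilla ratio as a per-plate robust z-score from median and median absolute deviation, median-centred per miRNA, and more negative indicates interaction. Values are averages of at least two independent screens.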

EZH2 = tested on: EZH2
Method in brief: as §1

FBXW7 = tested on: FBXW7
Method in brief: as §1

HRAS = tested on: HRAS
Method in brief: as §1

MYB = tested on: MYB
Method in brief: as §1

MYCN = tested on: MYCN
Method in brief: as §1

MYC = tested on: MYC
Method in brief: as §1

MYT1L = tested on: MYT1L
Method in brief: as §1

NOTCH1 = tested on: NOTCH1
Method in brief: as §1

PHF6 = tested on: PHF6
Method in brief: as §1

PHOX2B = tested on: PHOX2B
Method in brief: as §1

RB1 = tested on: RB1
Method in brief: as §1

TP53 = tested on: TP53
Method in brief: as §1

ZEB2 = tested on: ZEB2
Method in brief: as §1

Sequence	3' UTR reporter interaction score (BRCA2)	3' UTR reporter interaction score (EZH2)	3' UTR reporter interaction score (FBXW7)	3' UTR reporter interaction score (HRAS)	3' UTR reporter interaction score (MYB)	3' UTR reporter interaction score (MYCN)	3' UTR reporter interaction score (MYC)	3' UTR reporter interaction score (MYT1L)	3' UTR reporter interaction score (NOTCH1)	3' UTR reporter interaction score (PHF6)	3' UTR reporter interaction score (PHOX2B)	3' UTR reporter interaction score (RB1)	3' UTR reporter interaction score (TP53)	3' UTR reporter interaction score (ZEB2)
GGCGGAGGGAAGUAGGUCCGUUGGU	0.242	0.332	-0.817	-0.537	0.0558	-0.331	-0.0304	0.0209	0.067	0.0679	-1.42	0.267	-0.152	0.059
GGCUGGCUCGCGAUGUCUGUUU	-2.13	-0.172	0.4	-0.0445	-2.48	0.967	-0.237	1.15	-0.649	0.0685	0.166	0.183	0.4	0.922
GGGCGCCUGUGAUCCCAAC	-0.242	0.0894	0.114	-0.201	0.137	-0.708	-0.484	0.181	-0.381	-0.831	0.588	-0.433	0.186	-0.0882
GGUAGAUUCUCCUUCUAUGAG	-0.394	-0.351	1.14	-0.338	0.783	0.767	0.11	1.11	-0.435	0.87	0.393	-0.935	-0.00155	0.717
GUCAACACUUGCUGGUUUCCUC	1.05	1.25	1.04	-1.53	-0.366	-0.83	1.11	-2.13	-0.696	0.545	-0.934	0.731	-0.391	-0.604
GUCAUACACGGCUCUCCUCUCU	0.502	-0.733	-0.585	0.779	0.607	-1.89	0.275	-0.904	0.867	-2.04	-0.585	-0.0565	-0.0395	0.639
GUCCAGUUUUCCCAGGAAUCCCUU	0.301	0.32	-0.33	-1.3	0.98	-0.357	-0.0253	0.164	0.816	0.802	-0.361	-0.0539	-0.611	-0.186
GUCCCUCUCCAAAUGUGUCUUG	0.364	0.871	-1.89	0.01	1.83	1.77	1.7	-0.216	-0.392	-1.08	-0.224	-0.267	0.415	-3.03
GUCCGCUCGGCGGUGGCCCA	-0.044	0.465	-0.455	0.202	0.218	-0.651	-0.572	0.878	0.197	0.23	0.167	-0.471	0.883	0.167
